Test results reported in patent US5403717A, “Diagnosis of premalignant or malignant conditions of human secretory epithelia” (Pacific Northwest Research, priority 1992, dated 1995).

Assays:
[1] = target: T1, β1→3N-acetylglucosaminyltransferase (Homo sapiens, UniProt Q9BYG0); assay: β1→3N-acetylglucosaminyltransferase assay with Triton X-100 solubilized enzyme from SW403 cells; assay type: biochemical; conditions: for effect of removal from the reaction mixture on activity (in words): component removed from complete system; for β1-3N-acetylglucosaminyltransferase activity, named component omitted from complete system: component removed; for Effect of detergents on β1-3N-acetylglucosaminyltransferase activity: detergent added at 0.3% final concentration, 0.05% Triton X-100 present from enzyme, acceptor lactosylceramide; for fold less activity on substitution of Mn++: 10 mM final concentration, compared to Mn++; for β1-3N-acetylglucosaminyltransferase activity, Mn++ replaced by the named agent: plus agent at 10 mM final
T1 construct: solubilized from a 27,000 x g membrane pellet of SW403 cells by 0.2% Triton X-100; endogenous in cells; host or cells: SW403 cells (human colonic adenocarcinoma), 0.2% Triton X-100 soluble membrane fraction
T1 sequence (Q9BYG0 1-378): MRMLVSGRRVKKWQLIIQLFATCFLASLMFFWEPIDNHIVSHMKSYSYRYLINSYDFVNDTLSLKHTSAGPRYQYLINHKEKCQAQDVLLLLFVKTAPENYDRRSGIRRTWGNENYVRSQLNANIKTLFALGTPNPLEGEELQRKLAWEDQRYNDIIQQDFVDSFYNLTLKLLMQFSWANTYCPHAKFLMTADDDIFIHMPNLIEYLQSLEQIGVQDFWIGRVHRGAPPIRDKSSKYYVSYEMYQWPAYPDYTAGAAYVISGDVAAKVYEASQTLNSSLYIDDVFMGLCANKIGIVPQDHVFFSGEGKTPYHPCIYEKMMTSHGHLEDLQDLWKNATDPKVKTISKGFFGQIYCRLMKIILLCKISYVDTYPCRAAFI
Method: (§1) The labelled product was extracted into the lower phase of a Folch extraction (J. Biol. Chem., 191, 819-831), dried by an N2 stream, and dissolved in 20 μl of CHCl3 :CH3 OH (2:1). An aliquot, 10 μl was spotted on a HPTLC plate (Merck) and developed in a solvent composed of CHCl3 :CH3 OH:H2 O (60:35:8). The labelled glycolipids were located by autoradiography, scraped, and quantitated in a liquid scintillation counter.

[2] = tested on: β1→3N-acetylglucosaminyltransferase; assay: as above; assay type: biochemical, human; conditions: for Substrate specificity of β1-3N-acetylglucosaminyltransferase: transfer of GlcNAc to acceptor: 40 ug of each acceptor, ND = none detected
Method: as §1

[3] = target: T2, β1-3galactosyltransferase (Homo sapiens, UniProt Q9Y2C3); assay: Effect of α-lactalbumin on β1-3galactosyltransferase of a 0.2% Triton X-100 soluble fraction from SW403 cells; assay type: biochemical; conditions: 30 μg acceptor, 0.2 mg solubilized protein
T2 construct: catalyzed by a 0.2% Triton X-100 soluble fraction from SW403 cells; endogenous in cells; host or cells: SW403 cells (human colonic adenocarcinoma), 0.2% Triton X-100 soluble fraction
T2 sequence (Q9Y2C3 1-310): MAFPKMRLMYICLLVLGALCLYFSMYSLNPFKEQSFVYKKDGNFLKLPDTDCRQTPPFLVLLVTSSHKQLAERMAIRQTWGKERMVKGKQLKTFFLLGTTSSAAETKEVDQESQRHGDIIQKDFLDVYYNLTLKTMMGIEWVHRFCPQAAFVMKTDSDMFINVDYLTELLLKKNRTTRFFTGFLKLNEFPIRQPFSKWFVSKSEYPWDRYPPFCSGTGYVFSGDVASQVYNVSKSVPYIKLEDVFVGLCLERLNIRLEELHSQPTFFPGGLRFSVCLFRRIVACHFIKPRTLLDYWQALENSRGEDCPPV
Method: The effect of increasing α-lactalbumin on the transfer of galactose to glucosylceramide, +--+, Lc3 forming nLc4, o--o, and Lc3 forming Lc4, x--x, catalyzed by a 0.2% Triton X-100 soluble fraction from SW403 cells is shown. The assays were conducted in the presence of 30 μg of the indicated acceptor and 0.2 mg of solubilized protein.
Synthesis of type 1 and 2 chain structures Lc4 and nLc4 are catalyzed by β1-3 and β1-4galactosyltransferases, respectively, competing for Lc3. A β1-4-galactosyltransferase responsible for transfer of Gal to Lc3 in human plasma was previously reported to be lactose synthetase A protein which was also involved in the synthesis of lactosylceramide (J. Biochem., 92, 1123-1127 (1982)). The effect of increasing α-lactalbumin on the β1-4galactosyltransferase activity in SW403 cells is seen with glucosylceramide and Lc3 as acceptors.
The reaction mixtures contained 2.5 μmol HEPES buffer, pH 7.0, 20 μg Lc3, 10 μg deoxycholate, 1 μmol MnCI2, 0.5 μmol CDPcholine, 0.5 μmol galactonolactone, 15 nmol UDP[^14 C]galactose (30,000 cpm/nmol), and 0.1 mg protein in a total volume of 0.1 ml. […] The incorporation of [^14 C]galactose into glycolipid was determined as described above.

## C[N+](C)(C)CCOP(=O)(O)OP(=O)([O-])OC[C@H]1O[C@@H](n2ccc(N)nc2=O)[C@H](O)[C@@H]1O [CDPcholine]
[1]
  effect of removal from the reaction mixture on activity (in words): significant loss of activity
[1]; complete system gives 76.0
  β1-3N-acetylglucosaminyltransferase activity, named component omitted from complete system: 65.3 pmol/hr/mg protein

## C[C@H](CCC(=O)NCCC[N+](C)(C)CC(O)CS(=O)(=O)[O-])[C@H]1CC[C@H]2[C@@H]3[C@H](O)C[C@@H]4C[C@H](O)CC[C@]4(C)[C@H]3C[C@H](O)[C@]12C (some centres unmarked) [CHAPSO]
[1]
  Effect of detergents on β1-3N-acetylglucosaminyltransferase activity: 54.5 pmol/hr/mg protein

## [Ca+2] [Ca^++]
[1]
  fold less activity on substitution of Mn++: 13 fold
[1]; complete system gives 76.0
  β1-3N-acetylglucosaminyltransferase activity, Mn++ replaced by the named agent: 6.0 pmol/hr/mg protein

## C[C@H](CCC(=O)O)[C@H]1CC[C@H]2[C@@H]3CC[C@@H]4C[C@H](O)CC[C@]4(C)[C@H]3C[C@H](O)[C@]12C [Deoxycholate]
[1]
  Effect of detergents on β1-3N-acetylglucosaminyltransferase activity: 67.5 pmol/hr/mg protein

## CC(=O)N[C@H]1C(O)O[C@H](CO)[C@@H](O)[C@@H]1O (some centres unmarked) [GlcNAc]
[1]; GlcNAc 10 mM final, complete system gives 76.0
  β1-3N-acetylglucosaminyltransferase activity, GlcNAc added to complete system: 80.3 pmol/hr/mg protein
[1]; agent at 10 mM final concentration (EDTA in place of Mn++; GlcNAc added)
  effect on transfer of GlcNAc to lactosylceramide (in words): only slight stimulation of the activity

## [Mg+2] [Mg^++]
[1]
  fold less activity on substitution of Mn++: 21 fold
[1]; complete system gives 76.0
  β1-3N-acetylglucosaminyltransferase activity, Mn++ replaced by the named agent: 3.6 pmol/hr/mg protein

## Lactotetraosylceramide [Lc4]
[2]
  Substrate specificity of β1-3N-acetylglucosaminyltransferase: transfer of GlcNAc to acceptor: 27 pmol/hr/mg protein
[2]; SW403 cell enzyme, lacto-series glycolipid acceptors
  transfer of GlcNAc to acceptor (in words): detectable but is much lower

## Triton X-100
[1]
  Effect of detergents on β1-3N-acetylglucosaminyltransferase activity: 67.9 pmol/hr/mg protein

## lactosylceramide
[1]
  effect of removal from the reaction mixture on activity (in words): greatly diminished the activity
[1]; complete system gives 76.0
  β1-3N-acetylglucosaminyltransferase activity, named component omitted from complete system: 8.3 pmol/hr/mg protein
[2]
  Substrate specificity of β1-3N-acetylglucosaminyltransferase: transfer of GlcNAc to acceptor: 76 pmol/hr/mg protein

B1: α-lactalbumin: protein modifier of lactose synthetase A protein (β1-4galactosyltransferase) (protein, UniProt P00709 20-142, looked up)
Alpha-lactalbumin: KQFTKCELSQLLKDIDGYGGIALPELICTMFHTSGYDTQAIVENNESTEYGLFQISNKLWCKSSQVPQSRNICDISCDKFLDDDITDDIMCAKKILDIKGIDYWLAHKALCTEKLEQWLCEKL
[3]
  effect of α-lactalbumin on β1-3galactosyltransferase with Lc3 as acceptor (forming Lc4): Slight activation
